A short description of series [1]: Stability in the human liver microsome. Conditions: 0.5 mg/mL microsomes, NADPH, 15 minutes at 37° C. For orientation: Liver microsomes are vesicles of endoplasmic reticulum, rich in cytochrome P450 enzymes.
Protocol: Evaluation of the Stability in the Rat and Human Liver Microsome
A 0.25 mmol/L solution was prepared by diluting the test compound (10 mmol/L DMSO solution, 5 μL) with an aqueous 50% acetonitrile solution (195 μL).
20 μL was collected immediately after the start and the reaction was stopped by the addition to 180 μL of acetonitrile that contained an internal standard (warfarin). 20 μL of this solution was stirred with 180 μL of an aqueous 50% acetonitrile solution on a filter plate for protein depletion followed by suction filtration, and the filtrate was used as the standard sample.
The previously indicated reaction solution was incubated for 15 minutes at 37° C., and 20 μL was then added to 180 μL cold acetonitrile (contained the internal standard warfarin) to stop the reaction. 20 μL of this was stirred with 180 μL of an aqueous 50% acetonitrile solution on a filter plate for protein depletion followed by suction filtration, and the filtrate was used as the standard sample.
Series [2] deals with Human liver cells. The experiment in a line: Cytotoxicity in cultured human hepatoma cells (ATP concentration, Celltiter Glo). In kind it is cell-based. Particulars: 50% decline in ATP concentration, exposure for 24 hours, read-out: Toxicity for human liver cells (IC50 (μM)). The method, then: Measurement of the Cytotoxicity and Ability to Reduce the Mitochondrial Membrane Potential in Cultured Human Hepatoma Cells
Human liver cells were seeded into a collagen-coated 96-well plate at a cell density of 30,000 cells/well and incubation was carried out overnight in an incubator at 37° C. in 5% CO2-95% air. The cultured cells were stained for 1 hour with 5,5′,6,6′-tetrahydro-1,1′,3,3′-tetramethyl-benzamidazolocarbocyanine iodide (JC-1) followed by treatment with the test compound. The test compound was dissolved in DMSO and then diluted with the liquid culture medium Hepatocyte Culture Medium (HCM) and added to the cells. The test compound treatment concentrations were 0, 6.25, 12.5, 25, 50, 100, 200, and 400 μmol/L. After exposure to the test compound for 24 hours, measurement was performed with a SpectraMax plate reader (Molecular Devices, LLC) at an excitation wavelength of 485 nm and a fluorescence wavelength of 538 nm and an excitation wavelength of 544 nm and a fluorescence wavelength of 590 nm. The membrane potential was determined by the ratio between the 544 nm/590 nm measurement value and the 485 nm/538 nm measurement value. After this, the ATP concentration in the cells was measured using a Celltiter Glo luminescent assay kit (Promega Corporation) in order to evaluate the cell toxicity of the test compound. The cells were lysed by the assay buffer provided with the measurement kit and the concentration of the ATP released from the cells was measured using the luciferin-luciferase enzyme activity as the index. The emission was measured using a SpectraMax plate reader. […] The ability to lower the mitochondrial membrane potential of the test compounds and the cytotoxicity of the test compounds are given in Table 3 below.
For orientation: Cellular ATP, detected with luciferase, serves as a proxy for viable cell number.

The target in series [3] is Human CYP2C19 (Homo sapiens (Human), UniProt P33261). Put plainly: Inhibitory action on human CYP2C19. In kind it is in vitro ADME. The protocol:
Measurement of the Inhibitory Activity on Drug-Metabolizing Enzymes (Inhibitory Action on Human CYP2C8 and Human CYP2C19)
The reaction was carried out in a 96-well plate. The positive control substances (CYP2C8: ketoconazole, CYP2C19: tranylcypromine) were adjusted (CYP2C8: 0.6 and 6 mmol/L, CYP2C19: 0.9 and 9 mmol/L) with DMSO to concentrations that were 300 times the final concentration, and solutions were prepared (CYP2C8: 8 and 80 μmol/L, CYP2C19: 12 and 120 μmol/L) by 75× dilution with purified water that contained 2.7% acetonitrile. The test compounds were adjusted to […] with DMSO and were adjusted to 4 and 40 μmol/L by 75× dilution with purified water that contained 2.7% acetonitrile. A reaction mixture was then prepared (the numerical values are final concentrations) by the addition of potassium phosphate buffer (pH 7.4), magnesium chloride ([…]), substrate (CYP2C8: dibenzylfluorescein 1 μmol/L, CYP2C19: 3-cyano-7-ethoxycoumarin 25 μmol/L), and E. coli-expressed liver microsome CYP2C8 (Cypex, 10 pmol/L) and CYP2C19 (Cypex, 3 pmol/L). 100 μL of this reaction mixture and 50 μL of the test compound prepared as described above and the positive control solution prepared as described above were dispensed into each well and pre-incubation was carried out at 10 minutes for 37° C. The reaction was started by the addition of 50 μL NADPH solution (final concentration=1 mmol/L) and incubation was carried out for 30 minutes at 37° C. The fluorescence intensity was measured (CYP2C8: excitation wavelength=485 nm, fluorescence wavelength=538 nm; CYP2C19: excitation wavelength=409 nm, fluorescence wavelength=460 nm) immediately after the addition of the NADPH and after incubation for 30 minutes.

Series [4] has as its target Btk (Homo sapiens (Human), UniProt Q06187). Put plainly: Btk enzyme inhibitory activity (Z'-LYTE Kinase Assay Kit-Tyr1 peptide). In kind it is biochemical. Conditions: Tyr-1 peptide 4 μM, Btk 5 nM, ATP 36 μM, 1 hour at 30° C. The protocol: The Btk enzyme inhibitory activity was measured, based on the protocol provided by the manufacturer, using Btk (Invitrogen Corporation) and the Z′-LYTE® Kinase Assay Kit-Tyr1 peptide (Invitrogen Corporation), which contained the following reagents: Tyr-1 peptide, Thy-1 phosphopeptide, 5× kinase buffer, ATP, development reagent B, development buffer, and stop reagent.
5 μL/well of a solution of the test compound diluted with dimethyl sulfoxide (DMSO), or DMSO, and 10 μL/well of the substrate/enzyme mixture solution were dispensed to a 96-well assay plate and a reaction was carried out for 20 minutes at 30° C. […] The enzymatic reaction was then stopped by adding 10 μL of the stop solution.
The percent inhibition (%) by the test compound was calculated using the following equation. percent inhibition (%) of phosphorylation=1−{(AC−AX)/(AC−AB)}×100 [E1]

One may read the IC50 as the point on the concentration scale where inhibition reaches its midpoint.

Sequence of Btk (Q06187 whole entry): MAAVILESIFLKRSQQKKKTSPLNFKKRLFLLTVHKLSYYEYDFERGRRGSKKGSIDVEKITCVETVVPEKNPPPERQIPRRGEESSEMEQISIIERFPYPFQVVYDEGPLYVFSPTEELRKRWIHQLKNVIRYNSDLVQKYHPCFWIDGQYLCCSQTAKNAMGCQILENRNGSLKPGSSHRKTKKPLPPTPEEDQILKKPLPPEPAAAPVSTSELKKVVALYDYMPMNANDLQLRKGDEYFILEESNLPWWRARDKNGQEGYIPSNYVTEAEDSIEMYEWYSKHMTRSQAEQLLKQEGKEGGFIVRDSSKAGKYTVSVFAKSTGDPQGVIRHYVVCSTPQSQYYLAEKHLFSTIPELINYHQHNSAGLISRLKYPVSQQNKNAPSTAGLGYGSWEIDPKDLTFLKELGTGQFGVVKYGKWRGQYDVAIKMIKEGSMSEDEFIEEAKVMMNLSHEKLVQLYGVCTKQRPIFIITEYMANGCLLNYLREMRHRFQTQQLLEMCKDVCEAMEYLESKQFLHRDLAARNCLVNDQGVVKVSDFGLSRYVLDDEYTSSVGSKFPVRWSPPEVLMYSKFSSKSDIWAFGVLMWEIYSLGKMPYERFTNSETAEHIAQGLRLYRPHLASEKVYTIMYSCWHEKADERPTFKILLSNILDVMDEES
Sequence of Human CYP2C19 (P33261 whole entry): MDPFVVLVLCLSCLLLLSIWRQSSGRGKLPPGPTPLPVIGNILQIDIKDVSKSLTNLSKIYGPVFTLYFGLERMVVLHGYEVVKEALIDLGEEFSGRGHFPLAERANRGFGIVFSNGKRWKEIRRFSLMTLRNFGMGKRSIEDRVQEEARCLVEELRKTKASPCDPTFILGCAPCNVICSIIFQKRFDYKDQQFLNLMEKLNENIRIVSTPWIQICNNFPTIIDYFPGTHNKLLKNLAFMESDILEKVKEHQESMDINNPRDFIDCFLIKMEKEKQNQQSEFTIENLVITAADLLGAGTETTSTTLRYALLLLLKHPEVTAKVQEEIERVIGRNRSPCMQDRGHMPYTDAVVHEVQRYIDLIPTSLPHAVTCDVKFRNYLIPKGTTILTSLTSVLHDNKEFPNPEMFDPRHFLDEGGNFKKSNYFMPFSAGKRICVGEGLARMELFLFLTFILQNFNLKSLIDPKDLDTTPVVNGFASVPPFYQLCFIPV

Take `C=CC(=O)N1CC(n2c(=O)n(-c3ccc(Oc4ccccc4)cc3)c3c(N)ncnc32)C1` [Example 8, 9-(1-acryloyl-3-azetidinyl)-6-amino-7-(4-phenoxyphenyl)-7,9-dihydro-8H-purin-8-one]: the “Residual ratio (%) in the human liver microsome” value in series [1] worked out at 87.0%. The IC50 is 290 µM in series [2], > 10 µM in series [3] and 0.004 µM in series [4].
